# According to patent US20250134858A1, “COMPOSITIONS AND METHODS FOR TREATMENT OF NAFLD AND NASH AND RELATED DYSLIPIDEMIAS” (EpicentRx, Inc., priority 2022, published 2025):
# What was measured:
# Format in all cases: in vivo, rat
# [1] = test system: Sprague-Dawley rats fed high-fat atherogenic diet (HFD); assay: Relative LDL, HDL, TG and TC levels in rats fed a high-fat atherogenic diet
# Description: (§1) Sprague-Dawley rats (6-weeks-old male weighing about 180 grams) were randomly divided into three groups. The first group of the rats were subjected to a normal diet (ND) for a time period of 12 weeks. The second and the third group of the rats were subjected to a high-fat atherogenic diet (HFD, 40 kcal % fat, 1.25% cholesterol, 0.5% sodium cholate) for the time period of 12 weeks. The third HFD group of the rats were treated with about 5 mg/kg of RRx-001 every other week for the last 8 weeks before characterization (“HFD-RRx-001”). Several markers of inflammation and steatosis were evaluated.
# [2] = test system: Sprague-Dawley rats fed high-fat atherogenic diet (HFD); assay: NASH markers in HFD rats: hepatic TG, hepatic TC, steatosis score, serum ALT and AST; details: about 5 mg/kg every other week for last 8 of 12 weeks
# Description: as §1
# (§2) In a trial that tested for markers related to NASH, every other week administrations of RRx-001 reduced hepatic steatosis scores, serum ALT and AST levels, and hepatic levels of cholesterol and triglycerides in rats fed the HFD.
# [3] = test system: NLRP3 inflammasome; assay: Serum NLRP3, IL-1β and caspase-1 levels (ELISA) in HFD rats; details: about 5 mg/kg every other week for last 8 of 12 weeks
# Description: as §1, §2
structure (smiles),measurement,setting,value
"O=C(CBr)N1CC([N+](=O)[O-])([N+](=O)[O-])C1 [RRx-001, 2-bromo-1-(3,3-dinitroazetidin-1-yl)ethan-1-one]",relative amount of LDL,"[1]; about 5 mg/kg RRx-001 every other week for last 8 of 12 weeks, ND normalized to 1.0, HFD alone approximately 6, FIG. 1A",approximately 4 times the LDL amount of the ND rats
same,relative amount of HDL,"[1]; about 5 mg/kg every other week for last 8 of 12 weeks, ND normalized to 1, HFD alone approximately 0.2, FIG. 1B",approximately 0.4 relative to the ND rats
same,relative amount of total cholesterol (TC),"[1]; about 5 mg/kg every other week for last 8 of 12 weeks, ND normalized to 1, HFD alone approximately 2.7, FIG. 1D",approximately 1.8 times relative to the ND rats
same,relative amount of triglycerides (TG),"[1]; about 5 mg/kg every other week for last 8 of 12 weeks, ND normalized to 1, HFD alone approximately 6.2, FIG. 1C",approximately 4.4 relative to the ND rats
same,relative amount of hepatic TC,"[2]; ND normalized to 1, HFD alone approximately 4.3, FIG. 3B",approximately 3.8 times relative to the ND rats
same,relative amount of hepatic TGs,"[2]; ND normalized to 1, HFD alone approximately 8.2, FIG. 3A",approximately 5.7 times relative to the amounts of the ND rats
same,relative amount of IL-1β,"[3]; ND normalized to 1, HFD alone approximately 1.7, FIG. 5B",approximately 1.2 times relative to the amount in the ND rats
same,relative amount of serum NLRP3,"[3]; ND normalized to 1, HFD alone approximately 1.75, FIG. 5A",approximately 1.3 times relative to the rats that were fed the ND
same,relative amount of caspase-1,"[3]; ND normalized to 1, HFD alone approximately 2.0, FIG. 5C",approximately 1.3 times relative to the rats that were fed the ND
